≈ marks a conversion by molar mass, not a printed value.
Assay: Cytotoxicity against NCI60 cells
Format: functional
Settings: Homo sapiens

Compound	GI50 [ng/mL]
C/C=C\[C@H](C)[C@H]1O[C@@]1(C)[C@@H](O)[C@H]1COC(=O)[C@H](O)[C@@H](OC)[C@H](C)C(=O)[C@H](C)[C@@H](O)/C(C)=C/[C@H](C)C(=O)CC[C@@H](C)C1=O	0.09 (≈ 0.000151 µM)
C/C=C\[C@H](C)[C@H]1OC1(C)[C@@H](O)[C@H]1COC(=O)[C@H](O)[C@@H](OC)[C@H](C)C(=O)[C@H](C)[C@@H](OC(C)=O)/C(C)=C/[C@H](C)C(=O)C[C@H](O)[C@@](O)(CO)C1=O (single isomer, unassigned)	42 (≈ 0.0613 µM)

— ChEMBL document CHEMBL1145414, “Candidaspongiolides, distinctive analogues of tedanolide from sponges of the genus Candidaspongia” (2007)
